Experimental data from patent publication US10426758B2, “Sibiriline derivatives for use for preventing and/or treating disorders associated with cellular necroptosis” (Institut National de la Sante et de la Recherche Medicale …, priority 2015, dated 2019).

Columns and labels:
L929AsFas cells = assay: Anti-necroptotic effect, L929AsFas cells, FasL + zVAD, FACS of propidium iodide-stained nuclei; format: cell-based
Description: (§1) L929 cells, L929AsFas cells, Jurkat FADD-deficient cells (Jurkat FADD^−/−), U937 cells are pretreated for 1 h with increased concentrations of Sib (0, 5, 10, 20 μM) and then treated respectively with TNF-α (10 ng/ml)+zVAD (20 μM), FasL (200 ng/ml)+zVAD (20 μM), TNF-α (10 ng/ml), TRAIL (200 ng/ml)+zVAD (30 μM) or TRAIL (200 ng/ml)+zVAD (30 μM)+CHX (1 μg/ml). % of cell death is determined after 24 h and calculated by a FACS analysis of Propidium Iodide-stained nuclei. In each case, the EC50 is determined as well as the % of rescue from cell death.

U937 cells = assay: Anti-necroptotic effect, U937 cells, TRAIL + zVAD, FACS of propidium iodide-stained nuclei; format: cell-based
Description: as §1

[1] = system: Jurkat Fadd deficient cells; assay: Delayed treatment of Sib on TNF-induced necroptotic cell-death; format: cell-based, human; settings: 10 μM added 1 h, 2 h, 3 h or 4 h after TNF-α (10 ng/ml); cell death after 24 h
Description: Jurkat Fadd deficient cells are treated with TNF-α (10 ng/ml) then treated with Sib (10 μM) at 1 h, 2 h, 3 h or 4 h after adding TNF-α. % of cell death is determined after 24 h and calculated by a FACS analysis of Propidium Iodide-stained nuclei. Quantitative analysis of three independent experiments with means±SD.

AURKC = target: T1, AURKC (Homo sapiens, UniProt Q9UQB9); assay: Competition binding assay for kinase targets of Sib (456 kinases); settings: remaining kinase on the matrix after competition, read-out: Percent Control (%)
T1 sequence (Q9UQB9 1-309): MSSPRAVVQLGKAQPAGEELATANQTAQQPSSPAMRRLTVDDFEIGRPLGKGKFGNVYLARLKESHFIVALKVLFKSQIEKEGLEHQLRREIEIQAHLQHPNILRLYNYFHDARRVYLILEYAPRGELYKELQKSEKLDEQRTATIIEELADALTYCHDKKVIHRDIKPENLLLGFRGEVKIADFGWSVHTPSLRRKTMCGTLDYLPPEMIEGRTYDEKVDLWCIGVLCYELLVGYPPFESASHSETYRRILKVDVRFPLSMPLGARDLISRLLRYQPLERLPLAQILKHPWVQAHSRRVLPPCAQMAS
Description: (§2) The assay is performed by combining three components: DNA-tagged kinase (a total of 456 kinases were tested); immobilized ligand; and a test compound (here Sib). The ability of Sib to compete with the immobilized ligand is measured via quantitative PCR of the DNA tag.

KIT = KIT (Homo sapiens, UniProt P10721); assay: as above; settings: remaining kinase on the matrix after competition, read-out: Percent Control (%)
KIT, sequence (P10721 26-976): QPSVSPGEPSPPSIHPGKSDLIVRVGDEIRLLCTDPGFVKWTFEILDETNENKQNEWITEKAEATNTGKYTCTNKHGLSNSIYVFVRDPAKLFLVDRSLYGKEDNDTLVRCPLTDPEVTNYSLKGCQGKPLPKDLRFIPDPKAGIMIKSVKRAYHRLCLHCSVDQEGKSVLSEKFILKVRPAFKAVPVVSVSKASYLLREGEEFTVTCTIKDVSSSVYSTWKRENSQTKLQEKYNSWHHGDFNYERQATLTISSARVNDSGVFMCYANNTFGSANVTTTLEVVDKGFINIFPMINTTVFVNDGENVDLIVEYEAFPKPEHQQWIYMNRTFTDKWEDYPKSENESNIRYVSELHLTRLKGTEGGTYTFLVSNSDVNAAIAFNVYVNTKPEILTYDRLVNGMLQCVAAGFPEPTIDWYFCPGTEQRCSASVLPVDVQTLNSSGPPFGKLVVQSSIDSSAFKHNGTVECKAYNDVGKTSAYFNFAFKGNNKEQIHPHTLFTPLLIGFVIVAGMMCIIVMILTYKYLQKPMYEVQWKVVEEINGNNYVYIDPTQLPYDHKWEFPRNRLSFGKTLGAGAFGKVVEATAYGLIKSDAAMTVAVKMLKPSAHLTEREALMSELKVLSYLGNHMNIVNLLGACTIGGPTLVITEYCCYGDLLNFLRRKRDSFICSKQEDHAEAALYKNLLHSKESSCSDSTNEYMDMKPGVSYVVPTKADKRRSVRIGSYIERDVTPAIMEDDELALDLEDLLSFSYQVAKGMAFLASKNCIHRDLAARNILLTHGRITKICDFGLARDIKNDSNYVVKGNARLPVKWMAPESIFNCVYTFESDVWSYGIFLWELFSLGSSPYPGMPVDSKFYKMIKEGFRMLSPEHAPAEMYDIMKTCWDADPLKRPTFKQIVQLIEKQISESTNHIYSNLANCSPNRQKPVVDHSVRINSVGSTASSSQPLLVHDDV
Description: as §2

KIT(V559D) = KIT(V559D) (Homo sapiens, UniProt P10721, V559D); assay: as above; settings: remaining kinase on the matrix after competition, read-out: Percent Control (%)
KIT(V559D), sequence (P10721 26-976 V559D): as the sequence (P10721 26-976) above, with V534D counted along it
Description: as §2

PDGFRB = PDGFRB (Homo sapiens, UniProt P09619); assay: as above; settings: remaining kinase on the matrix after competition, read-out: Percent Control (%)
PDGFRB, sequence (P09619 33-1106): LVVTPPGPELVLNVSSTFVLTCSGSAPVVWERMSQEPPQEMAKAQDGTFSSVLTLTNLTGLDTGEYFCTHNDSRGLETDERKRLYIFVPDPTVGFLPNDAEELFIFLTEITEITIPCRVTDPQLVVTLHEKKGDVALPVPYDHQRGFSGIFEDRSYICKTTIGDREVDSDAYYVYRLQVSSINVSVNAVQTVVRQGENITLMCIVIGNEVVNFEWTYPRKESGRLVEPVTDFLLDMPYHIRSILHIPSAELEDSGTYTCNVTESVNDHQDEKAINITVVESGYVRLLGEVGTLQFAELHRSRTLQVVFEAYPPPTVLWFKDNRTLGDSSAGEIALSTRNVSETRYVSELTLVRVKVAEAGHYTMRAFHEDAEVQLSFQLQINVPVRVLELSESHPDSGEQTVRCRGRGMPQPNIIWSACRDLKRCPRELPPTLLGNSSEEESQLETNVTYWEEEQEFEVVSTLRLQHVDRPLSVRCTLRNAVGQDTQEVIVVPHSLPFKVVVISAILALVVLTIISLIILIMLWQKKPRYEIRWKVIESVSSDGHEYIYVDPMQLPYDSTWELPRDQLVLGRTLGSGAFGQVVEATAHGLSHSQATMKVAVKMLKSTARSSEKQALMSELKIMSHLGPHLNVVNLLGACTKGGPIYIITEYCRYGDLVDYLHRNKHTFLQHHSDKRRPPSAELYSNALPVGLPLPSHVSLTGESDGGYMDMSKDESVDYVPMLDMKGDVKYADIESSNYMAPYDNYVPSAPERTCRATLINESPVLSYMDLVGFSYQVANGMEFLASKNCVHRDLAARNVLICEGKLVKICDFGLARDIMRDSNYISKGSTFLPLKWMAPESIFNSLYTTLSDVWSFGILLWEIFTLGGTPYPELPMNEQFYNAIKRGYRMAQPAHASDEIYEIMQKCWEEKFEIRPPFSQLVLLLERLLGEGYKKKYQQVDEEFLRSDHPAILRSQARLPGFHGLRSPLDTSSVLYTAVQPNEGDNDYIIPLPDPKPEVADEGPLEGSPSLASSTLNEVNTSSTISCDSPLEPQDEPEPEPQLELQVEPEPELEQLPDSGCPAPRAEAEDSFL
Description: as §2

[2] = system: cytochrome P450 CYP1A enzymes in HepG2 cells; assay: Ethoxyresorufin O-deethylase (EROD) activity in HepG2 cells; format: in vitro ADME, human; settings: 10 μM, 24 hours
Description: EROD activity corresponds to the O-deethylation of ethoxyresorufin and is mainly supported by cytochrome P450 CYP1A enzymes in HepG2 cells. Induction of CYP1A is mediated through the binding of xenobiotics to a cytosolic aryl hydrocarbon receptor AhR.
Human liver cancer cell lines HepG2 were treated with 10 μM of Sib, Nec-1 or Nec-1s for 24 hours. After treatment, HepG2 cells were incubated in PBS containing 5 mM ethoxyresorufin and kinetic reading was performed at 37° C. with spectrofluorometer (SpectraMax Gemini SX) over a 15 min period.

[3] = system: murine model of acute hepatitis (concanavalin A-induced hepatitis); assay: Concanavalin A-induced acute hepatitis in mice; format: in vivo, C57Bl/6 WT mice
Description: We use a murine model of acute hepatitis (concanavalin A-induced hepatitis) that depends on necroptosis induction (Jouan-Lanhouet et al. Semin. Cell. Dev. Biol. 2014, 35, 2-13). Sib is diluted in 50% PBS/50% DMSO.
C57Bl/6 WT mice were pre-treated or not with 3, 6 or 9 mg/kg Sib or 6.25 mg/kg Nec-1s injected by intraperitoneal route 1 hour before treatment or not with 12 mg/kg Con A for 10 h (intravenous route) (50% PBS/50% DMSO, n=5; 50% PBS/50% DMSO+Con A, n=5; 3 mg/kg Sib+Con A, n=5; 6 mg/kg Sib+Con A, n=5; 9 mg/kg Sib+Con A, n=5; 6.25 mg/kg Nec-1s+Con A, n=5).

Oc1ccc(-c2cc3cccnc3[nH]2)cc1 [compound 2, 4-(1H-pyrrolo[2,3-b]pyridin-2-yl)phenol]
EC50 (L929AsFas cells; 1 h pretreatment, cell death after 24 h): 2.4 µM | % Rescue (L929AsFas cells; rescue from cell death, 24 h): 80% | EC50 (U937 cells; Homo sapiens, U-937, 1 h pretreatment, cell death after 24 h): 4 µM | % Rescue (U937 cells; rescue from cell death, 24 h): 90% | effect on necroptotic cell-death with delayed treatment [1]: inhibits the necroptotic cell-death | remaining binding at 10 µM (AURKC): 0.7% | remaining binding at 10 µM (KIT): 0.8% | remaining binding at 10 µM (KIT(V559D)): 0.4% | remaining binding at 10 µM (PDGFRB): 0.75% | induction of EROD activity [2]: do not induce EROD activity | AST and ALT levels and protection from Con A-induced hepatitis ([3]; Sib 9 mg/kg intraperitoneal 1 hour before 12 mg/kg Con A for 10 h): This protection is not observed | AST and ALT levels and protection from Con A-induced hepatitis ([3]; Sib 3 or 6 mg/kg intraperitoneal 1 hour before 12 mg/kg Con A for 10 h): has a tendency to decrease AST and ALT levels and to protect mice from Con A-induced hepatitis | serum aminotransaminases (ALT, AST) levels induced by ConA (figure legend) ([3]; dose of 3 mg/kg): decreases these serum transaminase levels
